Publication PMC10262914 (Bioorganic chemistry, 2022)
Values after ≈ are worked out from the molar mass of the structure shown. Values joined by “and” are separate entries in the source; they are usually repeats but may differ in a detail not shown here. Identical values can stand only once. Like-named read-outs stand apart in the source and are kept apart here.

Experiments:
[1] = test system: Mycobacterium tuberculosis H37Rv; experiment: Alamar blue assay, MIC stated as range over GAS and 7H12 media; format: cell-based; conditions: for MIC (range over both media): H37Rv
[2] = test system: VERO cells (kidney epithelial cells); experiment: Toxicity against VERO cells; format: cell-based
[3] = test system: Mycobacterium tuberculosis H37Rv; experiment: Alamar blue metabolic readout assay; format: cell-based; conditions: for 7H12 MIC: M. tuberculosis H37Rv; for MIC: Mycobacterium tuberculosis, H37RV, read-out: 7H12 MIC
[4] = test system: Mycobacterium tuberculosis H37Rv; experiment: Low oxygen recovery assay; format: cell-based; conditions: Mycobacterium tuberculosis, H37RV, read-out: LORA MIC
[5] = test system: Mycobacterium tuberculosis H37Rv; experiment: Alamar blue metabolic readout assay; format: cell-based; conditions: for GAS MIC: M. tuberculosis H37Rv; for MIC: Mycobacterium tuberculosis, H37RV, read-out: GAS MIC
in vitro [6] = conditions: monkey, microsomes, pH 7.4
[7] = human, microsomes
[8] = mouse, microsomes
in vitro [9] = conditions: mouse, microsomes, pH 7.4
[10] = microsomes
in vitro [11] = conditions: human, microsomes, pH 7.4
[12] = Chlorocebus sabaeus, Vero, read-out: Vero IC50, toxicity against Vero cells

Row | SMILES | IC50 [2, 12] [µM] | 7H12 MIC ([3]; 7H12 media) | MIC [3] [µM] | MIC [4] [µM] | GAS MIC ([5]; GAS media) | MIC [5] [µM] | further results
1 | [2H]c1c(C([2H])([2H])[2H])c([2H])n2c(C(=O)NCc3cc(Cl)cc(Cl)c3)c(C)nc2c1[2H] [Compound 47, N-(3,5-Dichlorobenzyl)-2-methyl-6-(methyl-d3)imidazo[1,2-a] pyridine-5,7,8-d3-3-carboxamide] | > 10 | 0.04 ± 0.013 µM | 0.04 (≈ 14.2 ng/mL) | 8.87 (≈ 3140 ng/mL) | 0.0188 ± 0.0028 µM | 0.0188 (≈ 6.66 ng/mL) | fold less active than 46 ([1]; versus 46 (3,5-difluoro)): > 2 fold
2 | [2H]c1c(C([2H])([2H])[2H])c([2H])n2c(C(=O)NCc3cccc(OC(F)(F)F)c3)c(C)nc2c1[2H] [Compound 43, 2-Methyl-6-(methyl-d3)-N-(3-(trifluoromethoxy)benzyl)imidazo [1,2-a]pyridine-5,7,8-d3-3-carboxamide] | > 10 |  | 0.108 ± 0.0074 (≈ 39.9 ng/mL) | 4.92 (≈ 1820 ng/mL) |  | 0.0263 ± 0.0036 (≈ 9.71 ng/mL) | fold less active than 30 ([3]; 7H12 media, MIC ratio versus compound 30 (printed as 4-OCF3 para)): > 28 fold; fold less active than 30 ([5]; GAS media, MIC ratio versus compound 30 (printed as 4-OCF3 para)): ~ 2.9 fold
3 | [2H]c1c(C([2H])([2H])[2H])c([2H])n2c(C(=O)NCc3ccc(S(F)(F)(F)(F)F)cc3)c(C)nc2c1[2H] [Compound 32, 2-Methyl-6-(methyl-d3)-N-(4-(pentafluoro-λ^6-sulfaneyl)benzyl) imidazo[1,2-a]pyridine-5,7,8-d3-3-carboxamide] |  | 0.0059 µM and 0.0059 ± 0.0003 µM |  |  | 0.0029 µM and 0.0029 ± 0.0005 µM |  | MIC (range over both media) [1]: 0.003 to 0.006 µM
4 | [2H]c1c(C([2H])([2H])[2H])c([2H])n2c(C(=O)NCc3ccc(OC(F)(F)F)cc3)c(C)nc2c1[2H] [Compound 34, 2-Methyl-6-(methyl-d3)-N-(4-(trifluoromethoxy)benzyl)imidazo [1,2-a]pyridine-5,7,8-d3-3-carboxamide] | > 50 | 0.0055 ± 0.0018 µM | 0.0055 (≈ 2.03 ng/mL) | > 5 | 0.0022 ± 0.0004 µM | 0.0022 (≈ 0.813 ng/mL) | 
5 | [2H]c1c(C([2H])([2H])[2H])c([2H])n2c(C(=O)NCc3ccc(OC)cc3)c(C)nc2c1[2H] [Compound 37, N-(4-Methoxybenzyl)-2-methyl-6-(methyl-d3)imidazo[1,2-a] pyridine-5,7,8-d3-3-carboxamide] | > 10 | 0.0354 ± 0.01 µM | 0.0354 (≈ 11.2 ng/mL) | > 10 | 0.0245 ± 0.0005 µM | 0.0245 (≈ 7.73 ng/mL) | 
6 | [2H]c1c(C([2H])([2H])[2H])c([2H])n2c(C(=O)NCc3ccccc3Cl)c(C)nc2c1[2H] [Compound 42, N-(2-Chlorobenzyl)-2-methyl-6-(methyl-d3)imidazo[1,2-a] pyridine-5,7,8-d3-3-carboxamide] | > 10 | 0.112 ± 0.0195 µM | 0.112 (≈ 35.8 ng/mL) | 8.49 (≈ 2720 ng/mL) | 0.0134 ± 0.0022 µM | 0.0134 (≈ 4.29 ng/mL) | 
7 | [2H]c1c(C([2H])([2H])[2H])c([2H])n2c(C(=O)NCc3ccc(S(C)(=O)=O)cc3)c(C)nc2c1[2H] [Compound 33, 2-Methyl-6-(methyl-d3)-N-(4-(methylsulfonyl)benzyl)imidazo[1,2-a]pyridine-5,7,8-d3-3-carboxamide] | > 10 |  | 0.212 ± 0.0282 (≈ 77.1 ng/mL) | > 10 |  | 0.174 ± 0.0269 (≈ 63.2 ng/mL) | MIC (range over both media) [1]: 0.174 to 0.212 µM
8 | [2H]c1c(C([2H])([2H])[2H])c([2H])n2c(C(=O)NCc3ccc(OCC)cc3)c(C)nc2c1[2H] [Compound 38, N-(4-Ethoxybenzyl)-2-methyl-6-(methyl-d3)imidazo[1,2-a] pyridine-5,7,8-d3-3-carboxamide] |  |  | 0.0236 ± 0.0104 (≈ 7.77 ng/mL) |  | 0.0092 ± 0.0013 µM | 0.0092 (≈ 3.03 ng/mL) | 
9 | [2H]c1c(C([2H])([2H])[2H])c([2H])n2c(C(=O)NCc3cccc(OC)c3)c(C)nc2c1[2H] [Compound 45, N-(3-Methoxybenzyl)-2-methyl-6-(methyl-d3)imidazo[1,2-a] pyridine-5,7,8-d3-3-carboxamide] |  | 0.105 ± 0.0191 µM | 0.105 (≈ 33.1 ng/mL) |  | 0.0205 ± 0.0004 µM | 0.0205 (≈ 6.47 ng/mL) | fold less active than 37 ([3]; 7H12 media, MIC ratio versus para isomer 37): 3 fold
10 | [2H]c1c(C([2H])([2H])[2H])c([2H])n2c(C(=O)NCc3ccc(Cl)cc3)c(C)nc2c1[2H] [Compound 31, N-(4-Chlorobenzyl)-2-methyl-6-(methyl-d3)imidazo[1,2-a]pyridine-5,7,8-d3-3-carboxamide] | > 10 | 0.0231 ± 0.0071 µM | 0.0231 (≈ 7.39 ng/mL) | 7.09 (≈ 2270 ng/mL) | 0.012 ± 0.0015 µM | 0.012 (≈ 3.84 ng/mL) | 
11 | CCc1nc2ccc(Cl)cn2c1C(=O)NCc1ccc(N2CCC(c3ccc(OC(F)(F)F)cc3)CC2)cc1 [Compound Q203, Telacebec, reference compound] |  | 0.0036 ± 0.0005 µM | 0.0036 (≈ 2.01 ng/mL) | > 5 | 0.0009 ± 0.0004 µM | 0.0009 (≈ 0.501 ng/mL) | 
12 | [2H]c1c(C([2H])([2H])[2H])c([2H])n2c(C(=O)NCc3ccc4c(c3)OCCO4)c(C)nc2c1[2H] [Compound 40, N-((2,3-Dihydrobenzo[b][1,4]dioxin-6-yl)methyl)-2-methyl-6-(methyl-d3)imidazo[1,2-a]pyridine-5,7,8-d3-3-carboxamide] |  | 0.0051 ± 0.0016 µM | 0.0051 (≈ 1.75 ng/mL) |  | 0.0101 ± 0.001 µM | 0.0101 (≈ 3.47 ng/mL) | 
13 | [2H]c1c(C([2H])([2H])[2H])c([2H])n2c(C(=O)NCc3cc(F)cc(F)c3)c(C)nc2c1[2H] [Compound 46, N-(3,5-Difluorobenzyl)-2-methyl-6-(methyl-d3)imidazo[1,2-a] pyridine-5,7,8-d3-3-carboxamide] | > 10 | 0.0124 ± 0.0045 µM | 0.0124 (≈ 3.98 ng/mL) | 6.91 (≈ 2220 ng/mL) | 0.0072 ± 0.0016 µM | 0.0072 (≈ 2.31 ng/mL) | MIC (range over both media) [1]: 0.007 to 0.012 µM
14 | [2H]c1c(C)cn2c(C(=O)NCc3ccc(C(F)(F)F)cc3)c(C([2H])([2H])[2H])nc2c1[2H] [Compound 52, 6-Methyl-2-(methyl-d3)-N-(4-(trifluoromethyl)benzyl)imidazo [1,2-a]pyridine-7,8-d2-3-carboxamide] | > 50 |  | 0.0039 ± 0.0016 (≈ 1.37 ng/mL) | > 10 |  | 0.0074 ± 0.0028 (≈ 2.61 ng/mL) | half-life at 2 μM (in vitro [6]): 12 min; CLint [7]: 30 ml/min/g protein; CLint [8]: 87 ml/min/g protein; half-life at 2 μM (in vitro [9]): 16 min; CLint [10]: 116 ml/min/g protein; half-life at 2 μM (in vitro [11]): 46 min
15 | [2H]c1c(C([2H])([2H])[2H])c([2H])n2c(C(=O)NCc3ccc(F)cc3)c(C)nc2c1[2H] [Compound 29, N-(4-Fluorobenzyl)-2-methyl-6-(methyl-d3)imidazo[1,2-a]pyridine-5,7,8-d3–3-carboxamide] | > 10 |  | 0.11 ± 0.0118 (≈ 33.4 ng/mL) | > 10 | 0.0233 ± 0.0005 µM | 0.0233 (≈ 7.07 ng/mL) | 
16 | [2H]c1c(C([2H])([2H])[2H])c([2H])n2c(C(=O)NCc3ccc4c(c3)CCCO4)c(C)nc2c1[2H] [Compound 39, N-(Chroman-6-ylmethyl)-2-methyl-6-(methyl-d3)imidazo[1,2-a] pyridine-5,7,8-d3-3-carboxamide] |  | 0.0072 ± 0.0004 µM | 0.0072 (≈ 2.46 ng/mL) |  | 0.0225 ± 0.0018 µM | 0.0225 (≈ 7.68 ng/mL) | 
17 | Cc1ccc2nc(C)c(C(=O)NCc3ccc(C(F)(F)F)cc3)n2c1 [Compound 57, 2,6-Bis(Methyl-d3)-N-((4-(trifluoromethyl)phenyl)methyl-d2) imidazo[1,2-a]pyridine-7,8-d2-3-carboxamide] |  |  |  |  |  |  | IC50 ([2]; read-out: Vero IC50, toxicity against Vero cells): > 50 µM
18 | [2H]c1c(C([2H])([2H])[2H])c([2H])n2c(C(=O)NCc3cccc(Cl)c3)c(C)nc2c1[2H] [Compound 41, N-(3-Chlorobenzyl)-2-methyl-6-(methyl-d3)imidazo[1,2-a] pyridine-5,7,8-d3-3-carboxamide] | > 10 | 0.0222 ± 0.0057 µM | 0.0222 (≈ 7.1 ng/mL) | 4.52 (≈ 1450 ng/mL) | 0.0035 ± 0.0003 µM | 0.0035 (≈ 1.12 ng/mL) | 
